Data published in patent US8030466B2, “3′-o-fluorescently modified nucleotides and uses thereof” (Korea Institute of Science and Technology, priority 2009, dated 2011).

Biological target: T1, Therminator II DNA polymerase (Thermococcus sp., UniProt Q56366, A485L/D141A/E143A/Y409V)
T1 construct: purchased New England Biolabs, Inc. (printed for the ThermoPol II buffer; inferred for the enzyme)
Experiment: Extension of DNA primer with MRT by polymerase (MALDI-TOF MS readout)
Format: biochemical
Procedure: The reaction was consisted of 20 cycles at 94° C. for 20 sec, 46° C. for 40 sec, and 60° C. for 90 sec. After the reaction, the mixture was incubated with strepatavidin-coated magnetic beads ([…], Dynabead MyOne, Invitrogen) in PBS buffer ([…]) at room temperature for 30 min.
After removing a fluorescent group from the 3′-end as the same manner as described in Example 4, the obtained DNA was purified by reverse-phased HPLC. The purified DNA was used as a primer for the second extension reaction with the MRT. The extension was performed by the same manner as described in Example 2. The resultant product was characterized using MALDI-TOF mass spectrometry (FIG. 3d).

T1 sequence (Q56366 whole entry D141A/E143A/Y409V/A485L): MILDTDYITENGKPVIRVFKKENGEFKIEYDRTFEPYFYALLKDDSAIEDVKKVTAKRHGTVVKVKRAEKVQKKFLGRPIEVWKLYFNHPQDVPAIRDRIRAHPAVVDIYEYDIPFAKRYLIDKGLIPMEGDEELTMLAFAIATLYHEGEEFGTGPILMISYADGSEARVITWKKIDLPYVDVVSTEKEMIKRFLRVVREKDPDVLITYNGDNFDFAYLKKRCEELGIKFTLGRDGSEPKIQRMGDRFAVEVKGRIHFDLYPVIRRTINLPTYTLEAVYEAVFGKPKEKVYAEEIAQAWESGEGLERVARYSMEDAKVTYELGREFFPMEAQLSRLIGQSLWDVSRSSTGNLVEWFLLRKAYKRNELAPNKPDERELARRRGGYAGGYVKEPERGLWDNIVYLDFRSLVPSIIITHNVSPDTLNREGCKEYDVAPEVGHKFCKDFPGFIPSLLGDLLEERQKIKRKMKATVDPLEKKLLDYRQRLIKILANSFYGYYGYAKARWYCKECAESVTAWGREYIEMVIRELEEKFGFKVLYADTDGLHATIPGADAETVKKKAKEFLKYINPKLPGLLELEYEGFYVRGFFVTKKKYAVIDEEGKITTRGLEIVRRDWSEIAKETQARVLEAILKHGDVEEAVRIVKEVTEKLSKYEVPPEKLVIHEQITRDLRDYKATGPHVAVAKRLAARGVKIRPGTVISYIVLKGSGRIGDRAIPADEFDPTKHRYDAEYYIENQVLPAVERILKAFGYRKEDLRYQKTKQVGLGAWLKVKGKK

Substance: 3′-O-(7-hydroxycoumarin)-dTTP [Compound 13]
- primer extension by MRT (biotinylated primer/template, 4 units Therminator II DNA polymerase, 20 cycles): the primer was extended by MRT
- second primer extension by MRT after label elimination (deprotected, HPLC-purified extended primer used as primer, Therminator II DNA polymerase): the primer chain could be extended again by another MRT
